Results reported in patent US20090088411A1, “No-donating corticosteroid with improved pharmacokinetic, anti-inflammatory and vasodilatory properties” (Topigen Pharmaceuticals Inc., priority 2007, published 2009).
Marks after values point to notes of the source that are not given here.

Experiments:
[1] = set-up: species or system humans; conditions: human, in vivo
Description: (§1) A clinical study was undertaken in humans to test certain aspects of a preferred NO-donating budesonide derivative, TPI-1020, as compared to the corticosteroid, budesonide which was not modified with a NO-donating moiety. Specifically, the objectives of this study were to determine the safety, pharmacodynamic and pharmacokinetic activity of multiple doses of inhaled NO-donating budesonide derivatives compared to that of equimolar doses of inhaled budesonide in subjects with mild asthma who smoke. We chose patients with asthma who smoke since these patients had reported to have not only an increase in eNO but also an increase in neutrophils within their sputum (as described in COPD). While assessing the safety of these compounds in such patients we could thus explore the effects of the same in patients with increased sputum neutrophils.
(§2) Those subjects who completed the 14-day run-in period were assigned to receive either an inhaled version of a compound of the present invention (in this case, budesonide 21-(4′-nitrooxymethyl)benzoate, designated hereafter as “TPI-1020”) or budesonide over a 21-day period. The doses administered were based on equimolar amounts of budesonide and were as follows: budesonide 400 μg bid for 14 days then 800 μg bid for 7 days; TPI-1020: 600 μg bid for 14 days then 1200 μg bid for 7 days. Study treatments were delivered in lactose-based blends using the capsule-based Aeroliser dry powder inhaler. Budesonide capsules (Miflonide®, Novartis Pharmaceuticals) delivered 383 μg as compared to 423 μg of budesonide for TPI-1020 (equivalent to 9.5% more budesonide delivered to the body in the TPI-1020 group). However, the fine particle dose of budesonide was 104 μg for the budesonide capsules and only 78 μg for the TPI-1020 capsules (equivalent to 25% less budesonide delivered to the lung in the TPI-1020 group). No other asthma medication except rescue salbutamol was permitted during the study.
The total number of adverse events reported by patients receiving budesonide and TPI-1020 is graphically depicted in FIG. 1. More specifically, FIG. 1 depicts the total number of either treatment-related or physician-determined adverse events for each drug during the 21 day therapeutic period.

[2] = system: sputum eosinophils; experiment: Sputum differential cell count: eosinophils; type: in vivo, humans; conditions: mean (SD)
Protocol: (§3) Although this study was only powered for neutrophils, the following parameters were also evaluated: sputum total cell and differential cell counts, using known methods, on days 0, 15 and day 22; pre-dose FEV1 measurements on days 0, 1, 14, 15 and 22; peak flow measurements throughout the study (miniwright meter); use of daily rescue medication (salbutamol) throughout the study; the response to methacholine challenge test; and the eNO levels (chemiluminescence after reaction with ozone) on days 0, 15 and 22 and plasma CRP levels on days 0, 15 and 22.
as §2

[3] = system: exhaled nitric oxide (eNO); experiment: Exhaled NO levels (chemiluminescence); type: in vivo, humans; conditions: for eNO (ppb): mean (SD)
Protocol: as §3, §2

[4] = system: blood eosinophils; experiment: Blood eosinophils; type: in vivo, humans; conditions: mean (SD)
Protocol: as §2

[5] = Methacholine challenge test (PC20); type: in vivo, humans; conditions: mean (SD)
Protocol: as §3, §2

[6] = Peak flow measurements (PEF, miniwright meter); type: in vivo, humans; conditions: mean (SD)
Protocol: as §3, §2

[7] = system: C-reactive protein (CRP); experiment: Plasma CRP levels; type: in vivo, humans; conditions: for CRP (mg/L): mean (SD)
Protocol: as §3, §2

[8] = system: sputum neutrophils; experiment: Sputum differential cell count: neutrophils; type: in vivo, humans; conditions: for median sputum neutrophils: all patients
Description: as §1, §3, §2
The sample size was chosen to provide information about the primary study objective (safety) and with the power to detect a 20% difference in the decrease in sputum neutrophils with TPI-1020, versus that occurring with budesonide. There are no published studies in mild smokers with asthma that have described the variability in sputum neutrophils. However, based on the COPD publication by Gamble et al., almost all patients with COPD have increased sputum neutrophils (>20%). We calculated that if 13 subjects per group completed the study, a difference of 20% in neutrophils (%) between groups could be detected with a power of 80%.

[9] = FEV1 spirometry; type: in vivo, humans; conditions: for FEV1 (ITT, L) / FEV1 (PD, L): mean (SD)
Protocol: as §3, §2

[10] = Plasma pharmacokinetic profile after inhalation; type: in vivo, humans
Protocol: as §2
TPI-1020 was not detected in the plasma of treated subjects at all the time points that were assessed over an 8 hour period on days 1 and 14 and on day 22, approximately 12 hours after the last dose. The budesonide plasma phamacokinetic analysis was different in the TPI-1020 group when compared to the budesonide group (FIG. 6). The Cmax, Tmax, and AUC were, respectively in the TPI-1020 vs. the budesonide treated group. For the data presented in FIG. 6, plasma budesonide was measured over an 8 hour period in budesonide (400 mcg, n=10) and TPI-1020 (600 mcg, n=8) treated patients after the first dose (day 1, dotted line) and day 14 (solid line).

[11] = Supine and standing blood pressure (vital signs), clinical study; type: in vivo, humans
Protocol: as §2

[12] = system: blood lymphocytes; experiment: Blood lymphocytes; type: in vivo, humans; conditions: mean (SD)
Protocol: as §2

[13] = Asthma control scoring system questionnaire (ACSS); type: in vivo, humans; conditions: mean (SD)
Protocol: as §2

[14] = system: HPA (hypothalamic-pituitary-adrenal) axis; conditions: in vivo
Description: (§4) This undesirable HPA axis suppression is typically measured by a reduction in urinary cortisol excretion.
(§5) Safety parameters consisted of adverse events and serious adverse events, vital signs, asthma symptoms, laboratory determinations of CBC, urinalysis, regular blood biochemistry, plasma C-reactive protein (CRP), plasma and urinary free cortisol levels, spirometry and electrocardiograms (ECGs).

[15] = system: neutrophils; experiment: Guinea pig model of LPS induced lung inflammation; type: in vivo
[16] = system: HPA (hypothalamic-pituitary-adrenal) axis; conditions: in vivo; remark: listed apart in the source
Description: as §4, §5

[17] = Use of daily rescue medication (salbutamol); type: in vivo, humans; conditions: mean (SD)
Protocol: as §3, §2

CCCC1O[C@@H]2C[C@H]3[C@@H]4CCC5=CC(=O)C=C[C@]5(C)[C@H]4[C@@H](O)C[C@]3(C)[C@]2(C(=O)COC(=O)c2ccc(CO[N+](=O)[O-])cc2)O1 (some centres unmarked) [TPI-1020, budesonide 21-(4′-nitrooxymethyl)benzoate]
drug-related adverse events [1]: 6 | number of subjects that reported adverse events [1]: 6 | total treatment-emergent adverse events [1]: 13 | Sputum eos (%) ([2]; Baseline): 8.7 (10.8) % | Sputum eos (%) ([2]; Day 22): 3.3 (4.0) % | eNO (ppb) ([3]; Baseline): 29 (27) ppb | eNO (ppb) ([3]; Day 22): 16.9 (14) ppb | decrease in eNO ([3]; equimolar doses, baseline to day 22): 12.1 ppb | Blood eos (%) ([4]; Baseline): 2.8 (2.7) % | Blood eos (%) ([4]; Day 22): 1.8 (1.7) % | PC20 (mg/ml) ([5]; Baseline): 3.5 (5.7) mg/ml | PC20 (mg/ml) ([5]; Day 22): 4.0 (8.9) mg/ml | PEF (AM, L/min) ([6]; Baseline): 365.1 (93) L/min | PEF (AM, L/min) ([6]; Day 22): 375.3 (97) L/min | patients in whom CRP decreased ([7]; 22 days of therapy compared to baseline): 69.2% | CRP (mg/L) ([7]; Baseline): 3.6 (3.9) mg/L | CRP (mg/L) ([7]; Day 22): 3.0 (4.5) mg/L | decrease in plasma CRP ([7]; day 15 versus baseline, p=0.03 between groups): 1.4 mg/L | mean sputum neutrophils ([8]; after 22 days, post hoc, patients with baseline sputum neutrophils <20% (normal)): 17.9% | mean sputum neutrophils ([8]; after 22 days, post hoc, patients with baseline sputum neutrophils >20%): 33.4% | mean sputum neutrophils ([8]; baseline, post hoc, patients with baseline sputum neutrophils <20% (normal)): 11.5% | mean sputum neutrophils ([8]; baseline, post hoc, patients with baseline sputum neutrophils >20%): 50.8% | median sputum neutrophils ([8]; day 0 prior to therapy): 29.8% | decrease in median sputum neutrophils ([8]; day 0 to day 22, all patients): 32.6% | median sputum neutrophils ([8]; day 22 (end of therapy)): 20.1% | decrease in mean sputum neutrophils ([8]; over 22 days, post hoc, patients with baseline sputum neutrophils >20%): 35.8% | patients in whom sputum neutrophils decreased to <30% ([8]; patients with high neutrophils at baseline): 57.1% | FEV1 (ITT, L) ([9]; Baseline): 3.0 (0.5) L | FEV1 (PD, L) ([9]; Baseline): 3.0 (0.6) L | FEV1 (PD, L) ([9]; Day 1): 2.8 (0.6) L | FEV1 (PD, L) ([9]; Day 14): 3.0 (0.6) L | FEV1 (PD, L) ([9]; Day 15): 2.8 (0.7) L | FEV1 (ITT, L) ([9]; Day 22): 3.0 (0.5) L | FEV1 (PD, L) ([9]; Day 22): 3.0 (0.6) L | acute effects on FEV1 over an 8 hour period ([9]; days 1 and 14, TPI-1020 600 mcg vs budesonide 400 mcg): no acute effects on FEV1 when compared to budesonide | TPI-1020 in plasma ([10]; all time points over 8 hours on days 1 and 14, and day 22 about 12 hours after last dose): not detected | AUC of plasma budesonide relative to equimolar budesonide group ([10]; inhaled, equimolar doses): significantly lower AUC values | Cmax of plasma budesonide relative to equimolar budesonide group ([10]; inhaled, equimolar doses): more than five fold lower | AUC of plasma budesonide relative to equimolar budesonide group ([10]; inhaled, equimolar doses, listed as NO-donating budesonide derivative): more than five fold lower | change in standing pulse pressure ([11]; after 22 days, p=0.015 between groups): −9.33 mmHg | decrease in standing diastolic blood pressure ([11]; day 22 versus baseline): 4.0% | decrease in standing systolic blood pressure ([11]; day 22 versus baseline): 9.9% | decrease in supine diastolic blood pressure ([11]; day 22 versus baseline): 3.4% | decrease in supine systolic blood pressure ([11]; day 22 versus baseline): 3.2% | effect on blood pressure values ([11]; over the 22 day period, vs baseline): decreased blood pressure values | Blood lymphocytes (%) ([12]; Baseline): 20.3 (16.6) % | Blood lymphocytes (%) ([12]; Day 22): 18.4 (15.4)* % | ACSS ([13]; Baseline): 65 (11.1) | ACSS ([13]; Day 22): 71.5 (16.3) | morning plasma cortisol level [14]: 13.7 µg/dL | recruitment of neutrophils into the lungs [15]: inhibited the recruitment of neutrophils | effect on 24-hour urinary free cortisol [16]: statistically insignificant effects | Doses of Rescue Rx ([17]; Baseline): 14.7 (11) | Rescue free days (%) ([17]; Baseline): 39 (39) % | Doses of Rescue Rx ([17]; Day 22): 3.9 (4.5) | Rescue free days (%) ([17]; Day 22): 63.5 (33) %
